# Measurements published in article PMC9105517, “Biological Activities of Lichen-Derived Monoaromatic Compounds” (Molecules, 2022).
# Read-outs that look alike come from different tables or passages of the source.
# Tests used:
# [1] = test system: alpha-glucosidase; design: method as in doi:10.1007/s10600-021-03404-z, PMID 33656403, PMID 29968482, PMID 18981604; settings: cited from earlier work
# [2] = test system: Staphylococcus aureus; experiment: Agar well diffusion antimicrobial assay; type: cell-based; settings: 8 mm wells
# Protocol: (§1) The agar well diffusion method was utilized to investigate the antibacterial activity of the isolated compounds on antibiotic-resistant, pathogenic bacteria E. faecium, S. aureus, and A. baumannii. Three bacterial pathogens were cultured in nutrient broth at 37 °C for 18 h. The cultures were diluted with sterile 0.9% NaCl to obtain bacterial solutions of 1.5 × 10^8 CFU/mL. This solution with a volume of 100 μL was spread on a Mueller-Hinton agar plate. Holes with a diameter of 8 mm were punched aseptically to create wells on the surface of the Mueller–Hinton agar. The compounds were dissolved in DMSO. The amount of 50 µg of each compound solution was inserted into the wells. The plates were incubated at 37 °C for 16–18 h and the antibacterial activity of each compound was recorded by measuring the diameters of the inhibition zones surrounding the wells. The determination of the minimum inhibitory concentration of 9a against Staphylococcus aureus was performed by the agar dilution method. Compound 9a was dissolved in DMSO to the final concentration of 1 mg/mL and then diluted with Mueller–Hinton agar (MHA) to the concentration range of 0, 1, 2, 4, 8, 16, 32, 64 μg/mL as the final concentrations in MHA plates. S. aureus was cultured in nutrient broth at 37 °C overnight with shaking. […] 1 μL of the diluted bacterial solution (10^4 CFU) was placed on the surface of the MHA plates and the plates were incubated at 37 °C for 16–18 h. The MIC value was recorded as the lowest concentration of 9a that inhibited the growth of S. aureus. Kanamycin was chosen as the positive control in this experiment, while DMSO was regarded as a control.
# [3] = test system: Acinetobacter baumannii; experiment: Agar well diffusion antimicrobial assay; type: cell-based; settings: 8 mm wells
# Protocol: as §1
# [4] = test system: Enterococcus faecium; experiment: Agar well diffusion antimicrobial assay; type: cell-based; settings: 8 mm wells
# Protocol: as §1
# [5] = test system: various microorganisms; design: method as in doi:10.1007/s11101-010-9201-1, PMID 12487331; settings: cited from earlier work
# [6] = test system: S. aureus, Bacillus subtilis, Pseudomonas aeruginosa, Candida albicans, Escherichia coli, and Aspergillus niger; design: method as in PMID 3834834; settings: various microorganisms; cited from earlier work
# [7] = target: T1, Saccharomyces cerevisiae α-glucosidase (E.C 3.2.1.20) (Saccharomyces cerevisiae, UniProt P53341); experiment: biochemical
# T1 construct: purchased Sigma Aldrich Co (Saint Louis, MO, USA)
# Protocol: The alpha-glucosidase (0.2 U/mL) and substrate (5.0 mM pNPG) were dissolved in 100 mM pH 6.9 sodium phosphate buffer. The inhibitor (50 µL) was preincubated with alpha-glucosidase at 37 °C for 20 min, and the substrate (40 µL) was subsequently added to the reaction mixture. The enzymatic reaction was conducted at 37 °C for 20 min and ended by adding 0.2 M Na2CO3 (130 μL). Enzymatic activity was quantitatively measured at an absorbance of 405 nm (CLARIOstar plus, BMG LABTECH, Ortenberg, Germany). All samples were analyzed in triplicate at five different concentrations around the IC50 values, and the mean values were retained. The following equation was used to calculate the inhibition percentage (%): Inhibition (%) = [1 − (Asample/Acontrol)] × 100.
# [8] = test system: Staphylococcus aureus; experiment: Minimum inhibitory concentration by agar dilution method; type: cell-based; settings: 37 °C, 16–18 h
# Protocol: The agar well diffusion method was utilized to investigate the antibacterial activity of the isolated compounds on antibiotic-resistant, pathogenic bacteria E. faecium, S. aureus, and A. baumannii. Three bacterial pathogens were cultured in nutrient broth at 37 °C for 18 h. The cultures were diluted with sterile 0.9% NaCl to obtain bacterial solutions of 1.5 × 10^8 CFU/mL. This solution with a volume of 100 μL was spread on a Mueller-Hinton agar plate. Holes with a diameter of 8 mm were punched aseptically to create wells on the surface of the Mueller–Hinton agar. The compounds were dissolved in DMSO. The amount of 50 µg of each compound solution was inserted into the wells. The plates were incubated at 37 °C for 16–18 h and the antibacterial activity of each compound was recorded by measuring the diameters of the inhibition zones surrounding the wells. The determination of the minimum inhibitory concentration of 9a against Staphylococcus aureus was performed by the agar dilution method. Compound 9a was dissolved in DMSO to the final concentration of 1 mg/mL and then diluted with Mueller–Hinton agar (MHA) to the concentration range of 0, 1, 2, 4, 8, 16, 32, 64 μg/mL as the final concentrations in MHA plates. S. aureus was cultured in nutrient broth at 37 °C overnight with shaking. […] The MIC value was recorded as the lowest concentration of 9a that inhibited the growth of S. aureus. […]
# [9] = in vitro, 37 °C, pH 6.9, triplicate, read-out: IC50, alpha-glucosidase inhibitory activity (converted)
# T1 sequence (P53341 whole entry): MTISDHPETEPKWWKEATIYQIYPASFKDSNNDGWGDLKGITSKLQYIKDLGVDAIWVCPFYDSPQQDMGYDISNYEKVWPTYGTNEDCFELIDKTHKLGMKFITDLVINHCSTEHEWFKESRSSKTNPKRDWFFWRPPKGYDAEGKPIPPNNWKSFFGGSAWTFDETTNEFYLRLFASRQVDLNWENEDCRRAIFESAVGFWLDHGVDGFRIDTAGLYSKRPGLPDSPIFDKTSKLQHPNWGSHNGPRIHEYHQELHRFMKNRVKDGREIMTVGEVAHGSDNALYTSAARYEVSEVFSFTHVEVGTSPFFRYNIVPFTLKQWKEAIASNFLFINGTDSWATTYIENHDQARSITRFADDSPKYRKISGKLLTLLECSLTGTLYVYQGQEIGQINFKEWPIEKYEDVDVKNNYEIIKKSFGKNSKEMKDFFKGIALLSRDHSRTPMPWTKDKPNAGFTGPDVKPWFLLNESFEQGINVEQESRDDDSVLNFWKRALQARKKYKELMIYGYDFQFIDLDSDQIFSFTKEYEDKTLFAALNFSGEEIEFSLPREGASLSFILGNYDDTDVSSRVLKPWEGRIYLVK
compound,measurement,setting,value
"COC(=O)c1c(C)cc(O)c(C)c1O [Compound 8, methyl β-orsellinate]",alpha-glucosidase inhibition (in words),[1],weak inhibitors
same,zone of inhibition at 50 µg/mL,[2],18 mm
same,zone of inhibition at 50 µg/mL,[3],16 mm
same,zone of inhibition at 50 µg/mL,[4],13 mm
same,MIC,[5],30 to 500 µg/mL
same,MIC,[6],80 to 160 µg/mL
same,IC50,[7],> 1530 µM
CCOC(=O)c1c(C)cc(O)cc1O [ethyl orsellinate],MIC,[5],30 to 500 µg/mL
"COC(=O)c1c(C)c(Br)c(O)c(Br)c1O [Compound 9a, methyl 3,5-dibromo-orsellinate]",zone of inhibition at 50 µg/mL,[2],29 mm
same,IC50,[7],459 µM
same,MIC,[8]; read-out: MIC,4 µg/mL
"Cc1c(O)cc(C(=O)O)cc1O [Compound 3, 3,5-dihydroxy-4-methylbenzoic acid]",IC50,[7],143 µM
"CN[C@@H]1[C@@H](O[C@H]2O[C@H](CO)[C@@H](N)[C@H](O)[C@H]2O)OC2C[C@@H](N)[C@@H](O[C@H]3[C@H](O)[C@@H](O)[C@H](N)C[C@@H]3N)OC2[C@@H]1O (some centres unmarked) [Apramycin, reference compound]",zone of inhibition at 50 µg/mL,[2],21 mm
same,zone of inhibition at 50 µg/mL,[3],20 mm
same,zone of inhibition at 50 µg/mL,[4],21 mm
"Cc1cc(O)cc(O)c1C(=O)OCC(O)C(O)CO [Compound 10, D-montagnetol]",IC50,[7],> 1100 µM
Cc1cc(O)cc(O)c1 [orcinol],MIC,[5],30 to 500 µg/mL
"COC(=O)c1cc(O)cc(O)c1 [Compound 2, 3,5-dihydroxybenzoate methyl]",IC50,[7]; [9],939 µM
"COc1c(O)cc(C(=O)O)cc1O [Compound 4, 3,5-dihydroxy-4-methoxylbenzoic acid]",IC50,[7]; [9],929 µM
"COC(=O)c1c(C)c(Br)c(O)c(C)c1O [Compound 8a, methyl 5-bromo-β-orsellinate]",zone of inhibition at 50 µg/mL,[2],12 mm
same,IC50,[7],606 µM
"Cc1cc(O)c(O)c(O)c1 [Compound 5, 3-hydroxyorcinol]",IC50,[7]; [9],694 µM
"Cc1cc(O)c(Br)c(O)c1C(=O)OCC(O)C(O)CO [Compound 10a, 3-bromo-D-montagnetol]",zone of inhibition at 50 µg/mL,[4],13 mm
same,IC50,[7],381 µM
"Cc1cc(O)c(C=O)c(O)c1 [Compound 6, atranol]",IC50,[7],> 1970 µM
"COC(=O)c1c(C)cc(O)cc1O [Compound 9, methyl orsellinate]",alpha-glucosidase inhibition (in words),[1],weak inhibitors
same,zone of inhibition at 50 µg/mL,[2],13 mm
same,MIC,[5],30 to 500 µg/mL
same,IC50,[7],> 1650 µM
"COC(=O)c1c(C)cc(O)c(C=O)c1O [Compound 7, methyl hematommate]",alpha-glucosidase inhibition (in words),[1],potent activity
same,IC50,[7]; [9],294 µM
"Cc1c(Br)c(O)c(Br)c(O)c1C(=O)OCC(O)C(O)CO [Compound 10b, 3,5-dibromo-D-montagnetol]",IC50,[7],301 µM
"NC[C@H]1O[C@H](O[C@H]2[C@H](O)[C@@H](O[C@H]3O[C@H](CO)[C@@H](O)[C@H](N)[C@H]3O)[C@H](N)C[C@@H]2N)[C@H](O)[C@@H](O)[C@@H]1O [kanamycin, reference compound]",MIC,[8],4 µg/mL
cristiferide A,alpha-glucosidase inhibition (in words),[1],potent activity
"O=C(O)c1cc(O)cc(O)c1 [Compound 1, 3,5-dihydroxybenzoic acid]",IC50,[7]; [9],729 µM
